Reference: patent US4512986A, “Progrestationally active steroids” (priority 1983, dated 1985)
Where two headings read alike, the source gives them in different places.

What was measured:
[1] = test system: estrogen-primed immature rabbits; conditions: cited from earlier work
[2] = test system: endometrium of estrogen-primed ovariectomized or climacteric women; conditions: oral; cited from earlier work
cycling rats = conditions: literature; cited from earlier work
[3] = molecular target: T1, Cytosol Progesterone Receptor of the Estrogen-primed Immature Rabbit Uterus (Oryctolagus cuniculus, UniProt P06186); assay: Relative binding affinity for progesterone receptor (competition with 3H-progesterone); parameters: species or system rabbit (New Zealand White); conditions: 16-18 hour incubation, progesterone = 100
T1 construct: cytosol progesterone receptor of the estrogen-primed immature rabbit uterus; tissue Dutchland Laboratories, Inc., Denver, Pa (animals); host or cells: uterus cytosol of estradiol-treated immature female New Zealand White rabbits
T1 sequence (P06186 1-930): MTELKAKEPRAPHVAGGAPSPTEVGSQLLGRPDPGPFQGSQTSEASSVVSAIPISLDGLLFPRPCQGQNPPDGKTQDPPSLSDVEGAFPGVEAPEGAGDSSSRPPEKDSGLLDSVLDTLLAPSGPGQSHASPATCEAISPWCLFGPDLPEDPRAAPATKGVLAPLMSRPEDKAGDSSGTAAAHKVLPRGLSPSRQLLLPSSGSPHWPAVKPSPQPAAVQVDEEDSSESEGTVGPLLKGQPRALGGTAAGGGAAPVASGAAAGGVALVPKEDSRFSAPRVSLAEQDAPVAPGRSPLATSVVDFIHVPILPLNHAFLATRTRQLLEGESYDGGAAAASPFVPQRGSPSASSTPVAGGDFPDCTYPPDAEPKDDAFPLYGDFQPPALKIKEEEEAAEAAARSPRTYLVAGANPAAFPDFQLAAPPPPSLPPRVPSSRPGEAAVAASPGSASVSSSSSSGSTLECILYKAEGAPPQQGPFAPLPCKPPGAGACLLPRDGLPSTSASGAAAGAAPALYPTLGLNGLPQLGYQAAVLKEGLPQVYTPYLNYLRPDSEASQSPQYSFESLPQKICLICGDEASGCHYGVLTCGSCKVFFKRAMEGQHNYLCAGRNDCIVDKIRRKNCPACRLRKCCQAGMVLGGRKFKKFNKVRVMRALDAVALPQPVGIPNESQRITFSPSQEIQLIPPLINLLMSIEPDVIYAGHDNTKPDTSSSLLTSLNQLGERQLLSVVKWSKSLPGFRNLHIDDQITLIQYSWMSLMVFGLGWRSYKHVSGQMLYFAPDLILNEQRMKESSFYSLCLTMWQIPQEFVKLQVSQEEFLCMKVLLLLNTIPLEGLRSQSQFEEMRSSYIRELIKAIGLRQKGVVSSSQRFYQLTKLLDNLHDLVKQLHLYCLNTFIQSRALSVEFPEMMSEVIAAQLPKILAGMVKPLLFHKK

[4] = in vivo; cited from earlier work
[5] = test system: curettage specimens of endometrial cancer patients; conditions: i.m. twice weekly 3-7 weeks after polyestradiol phosphate 80 mg; all 12 patients; cited from earlier work

With `C#C[C@]1(O)CC[C@H]2[C@@H]3CCC4=CC(=O)CC[C@@H]4[C@H]3CC[C@@]21CC` (relative stereo) [(±)Norgestrel] as the compound, how does the “Threshold or effective dose, Clauberg Assay” value ([1]; oral) read?
The value was 0.03-0.1 mg/animal.

What about the “Threshold or effective dose, Clauberg Assay” value ([1]; s.c. (i.m.)) of the same compound?
The value was 0.03 mg/animal.

What about the “Threshold or effective dose, Kaufman Assay” value [2] of the same compound?
The value was 12 mg/cycle.

And the “effectiveness in suppressing ovulation relative to progesterone (Beattie and Corbin 1975), in words” value (cycling rats)?
Its value is “five times as effective as progesterone”.

With `CC(=O)O[C@]1(C(C)=O)CC[C@H]2[C@@H]3CCC4=CC(=O)CC[C@]4(C)[C@H]3CC[C@@]21C` [17α-Acetoxyprogesterone (Prodox ®), 17α-Acetoxyprogesterone, reference compound] as the compound, how does the RBA ([3]; Assay 5) read?
The RBA was 122%.

What about the RBA ([3]; Assay 6) of the same compound?
The RBA was 114%.

And the “thromboembolic episodes, in words” value [4]?
The value was “higher rate of thromboembolic episodes”.

Which “inhibition of nucleic acid synthesis, in words” value [5] does the source give for `CCCCCC(=O)O[C@]1(C(C)=O)CC[C@H]2[C@@H]3CCC4=CC(=O)CC[C@]4(C)[C@H]3CC[C@@]21C` [17α-hydroxyprogesterone caproate] here?
The value was “Significant inhibition of nucleic acid synthesis”.

With `CCCCCC(=O)O[C@]1(C(C)=O)CC[C@H]2[C@@H]3CCC4=CC(=O)CC[C@@H]4[C@H]3CC[C@@]21C` [19-nor-17α-hydroxyprogesterone caproate] as the compound, how does the “inhibition of nucleic acid synthesis, in words” value [5] read?
Its value is “Significant inhibition of nucleic acid synthesis”.
